pIC50: −log10 of the molar value.
Tested on: K98450-129-R-PDC complex spheroid growth, percent test/control
Experiment: Anticancer human tumor K98450-129-R-PDC patient-derived colon adenocarcinoma cell line growth inhibition [RAS]
Conditions: for pIC50: curve of first compound; for viability, T/C: stronger effect = lower value
Description: RAS pathway inhibitors in Combinations in Complex Spheroids
A high-throughput screen of multi-cell type tumor spheroids was designed to identify active combinations of RAS pathway inhibitors and targeted small molecules. Complex spheroids include a stromal component modeled by human endothelial cells (HUVEC) and fibroblasts modeled by human mesenchymal stem cells (MSCs). The concentration ranges selected for each drug and investigational agent were based upon clinically achievable concentrations if the clinical Cmax of the agent was known.
Compounds. The drugs and investigational agents: abemaciclib (NSC768073), cobimetinib (NSC768068), divarasib (GDC6063, NSC841802), docetaxel (NSC628503), GDC-1971 (RLY-1971, NSC841576), gemcitabine (NSC613327), inavolisib (NSC800729), ipatasertib (NSC767898), KB-0742 (NSC834161), MRTX-1133 (NSC836407), osimertinib (NSC779217), RMC-4630 (NSC839698), RMC-6236 (NSC851965), RMC-6291 (NSC852671), Ro-3306 (NSC812927), sapanisertib (NSC764658), SN-38 (NSC673596), staurosporine (NSC755774), SY5609 (NSC837396), and tovorafenib (DAY101, NSC766906), were obtained from the National Cancer Institute (NCI) Developmental Therapeutics Program Chemical Repository. The FDA-approved anticancer drug set is available from the NCI Developmental Therapeutics Program. […] The stock solutions were prepared in dimethyl sulfoxide (DMSO, Sigma-Aldrich, St. Louis, MO, cat. D2650) at 800-fold the tested concentration and stored at -70 degrees C prior to their use. All drugs and investigational agents were tested over a range starting from a high concentration at or near the clinical Cmax and decreasing in half-log increments. If the clinical Cmax for an agent had not been determined, the highest concentration tested was 10 microM.
Cell Culture. All cells were maintained in an incubator at 37 degrees C and 5% CO2 with 95% humidity. The PDC lines were cultured according to standard operating procedures established by the NCI PDMR. All PDCs were thawed and cultured in Matrigel-coated flasks prepared with a working solution of 1X Ham's F-12 nutrient mix, without supplementation (Invitrogen, Waltham, MA, cat. 11765054), 100 U/mL penicillin-streptomycin (Invitrogen, cat. 15140122), and 2.5% Matrigel (Corning Inc., Corning, NY, cat. 354248) for the first three passages. The 362531-283-R-J2-PDC and 782815-120-R-J1-PDC lines were cultured in 6C/Colon 1B media, which includes advanced DMEM/F-12 (Thermo Fisher Scientific, cat. 12634028), 10 mM HEPES (Thermo Fisher Scientific, cat. 15630080), 1X GlutaMAX supplement (Thermo Fisher Scientific, cat. 35050061), 0.1 mg/mL primocin (InvivoGen, San Diego, CA, cat. ant-pm-2), 10% defined fetal bovine serum, heat inactivated (HyClone Laboratories Inc., Logan, UT, cat. SH30070.03HI), 50% L-WRN conditioned media (ATCC, cat. CRL-3276), 1.25 mM N-Acetyl-L-cysteine (Sigma-Aldrich, cat. A9165), 10 mM nicotinamide (Sigma-Aldrich, cat. N0636), 1X B-27 supplement (Thermo Fisher Scientific, cat. 17504044), 1X N-2 supplement (Thermo Fisher Scientific, cat. 17502048), 50 ng/mL human EGF (Thermo Fisher Scientific, cat. PHG0311), and 10 microM Y-27632 dihydrochloride (Tocris Bioscience, cat. 1254). The K12877-001-R-J1-PDC line was cultured in 6I media, which includes all 6C/Colon 1B media plus 10 ng/mL human FGF-10 (PeproTech, cat. 100-26), 1 ng/mL human FGF-2 (PeproTech, cat. 100-18B), 1 µM prostaglandin E2 (Tocris Bioscience, cat. 2296), […] hydrocortisone (Sigma-Aldrich, cat. H4001), and […] bovine insulin (Sigma-Aldrich, cat. I6634). The K86415-001-R-J1-PDC line was cultured in 6D media, which includes all 6C/Colon 1B media components minus the L-WRN conditioned media. The 485176-168-R4-J1-PDC was cultured in PANC media, which includes all 6C/Colon 1B media plus 100 ng/mL human FGF-10 (PeproTech, cat. 100-26), 500 nM SB-431542 (Selleckchem, cat. S1067), and 10 nM gastrin (Tocris Bioscience, cat. 3006). […]

[1] = second compound 0.0316 µM, first compound 0.0316 µM
[2] = second compound 0.0316 µM, first compound 0.1 µM
[3] = second compound 0.1 µM, first compound 0.0316 µM
[4] = second compound 0.1 µM, first compound 0.1 µM
[5] = second compound 0.316 µM, first compound 0.0316 µM
[6] = second compound 0.316 µM, first compound 0.1 µM
[7] = second compound 1 µM, first compound 0.0316 µM
[8] = second compound 1 µM, first compound 0.1 µM
[9] = second compound 3.16 µM, first compound 0.0316 µM
[10] = second compound 3.16 µM, first compound 0.1 µM
[11] = second compound 10 µM, first compound 0.0316 µM
[12] = second compound 10 µM, first compound 0.1 µM
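Note: spheroids exposed to agents for seven days before the viability readout.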
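Throughout, for viability, T/C: luminescence used as a proxy for viable cell amount.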

`CC(C)n1nc(-c2ccc3oc(N)nc3c2)c2c(N)ncnc21` + C#Cc1c(F)ccc2cc(O)cc(-c3ncc4c(N5CC6CCC(C5)N6)nc(OCC56CCCN5CC(F)C6)nc4c3F)c12 was tested, and the pIC50 (second compound 0.0316 µM) was less than 7.00, the pIC50 (second compound 0.1 µM) was less than 7.00 and the pIC50 (second compound 0.316 µM) was less than 7.00. It also gave a pIC50 (second compound 1 µM) of less than 7.00, a pIC50 (second compound 3.16 µM) of less than 7.00 and a pIC50 (second compound 10 µM) of less than 7.00. For the same compound, the viability, T/C (second compound 0.0316 µM, first compound 0.000316 µM) was 110%, the viability, T/C (second compound 0.0316 µM, first compound 0.001 µM) was 104% and the viability, T/C (second compound 0.0316 µM, first compound 0.00316 µM) was 101%. The viability, T/C (second compound 0.0316 µM, first compound 0.01 µM) was 98.4%, the viability, T/C [1] was 86.5% and the viability, T/C [2] was 78.3%. It also gave a viability, T/C (second compound 0.1 µM, first compound 0.000316 µM) of 114%, a viability, T/C (second compound 0.1 µM, first compound 0.001 µM) of 103% and a viability, T/C (second compound 0.1 µM, first compound 0.00316 µM) of 102%. For the same compound, the viability, T/C (second compound 0.1 µM, first compound 0.01 µM) was 95.9%, the viability, T/C [3] was 89.2% and the viability, T/C [4] was 74.4%. For the same compound, the viability, T/C (second compound 0.316 µM, first compound 0.000316 µM) was 109%, the viability, T/C (second compound 0.316 µM, first compound 0.001 µM) was 105% and the viability, T/C (second compound 0.316 µM, first compound 0.00316 µM) was 104%. The viability, T/C (second compound 0.316 µM, first compound 0.01 µM) was 98.8%, the viability, T/C [5] was 93.1% and the viability, T/C [6] was 71.9%. For the same compound, the viability, T/C (second compound 1 µM, first compound 0.000316 µM) was 106%, the viability, T/C (second compound 1 µM, first compound 0.001 µM) was 107% and the viability, T/C (second compound 1 µM, first compound 0.00316 µM) was 95.1%. For the same compound, the viability, T/C (second compound 1 µM, first compound 0.01 µM) was 93.8%, the viability, T/C [7] was 82.9% and the viability, T/C [8] was 74.7%. For the same compound, the viability, T/C (second compound 3.16 µM, first compound 0.000316 µM) was 95.6%, the viability, T/C (second compound 3.16 µM, first compound 0.001 µM) was 94.8% and the viability, T/C (second compound 3.16 µM, first compound 0.00316 µM) was 92%. It also gave a viability, T/C (second compound 3.16 µM, first compound 0.01 µM) of 84.4%, a viability, T/C [9] of 80.1% and a viability, T/C [10] of 66.7%. For the same compound, the viability, T/C (second compound 10 µM, first compound 0.000316 µM) was 84.9%, the viability, T/C (second compound 10 µM, first compound 0.001 µM) was 82.9% and the viability, T/C (second compound 10 µM, first compound 0.00316 µM) was 87.4%. The viability, T/C (second compound 10 µM, first compound 0.01 µM) was 77%, the viability, T/C [11] was 69.6% and the viability, T/C [12] was 62.2%.
In the case of `C[C@@H](NC(=O)c1ncnc(N)c1Cl)c1ncc(C(=O)Nc2cc(C(F)(F)F)c(Cl)cn2)s1` + C#Cc1c(F)ccc2cc(O)cc(-c3ncc4c(N5CC6CCC(C5)N6)nc(OCC56CCCN5CC(F)C6)nc4c3F)c12, the pIC50 (second compound 0.0316 µM) was less than 5.00, the pIC50 (second compound 0.1 µM) was less than 5.00 and the pIC50 (second compound 0.316 µM) was less than 5.00. For the same compound, the pIC50 (second compound 1 µM) was less than 5.00, the pIC50 (second compound 3.16 µM) was less than 5.00 and the pIC50 (second compound 10 µM) was less than 5.00. It also gave a viability, T/C [1] of 114%, a viability, T/C [2] of 117% and a viability, T/C (second compound 0.0316 µM, first compound 0.316 µM) of 118%. It also gave a viability, T/C (second compound 0.0316 µM, first compound 1 µM) of 126%, a viability, T/C (second compound 0.0316 µM, first compound 3.16 µM) of 129% and a viability, T/C (second compound 0.0316 µM, first compound 10 µM) of 103%. The viability, T/C [3] was 115%, the viability, T/C [4] was 126% and the viability, T/C (second compound 0.1 µM, first compound 0.316 µM) was 130%. The viability, T/C (second compound 0.1 µM, first compound 1 µM) was 127%, the viability, T/C (second compound 0.1 µM, first compound 3.16 µM) was 128% and the viability, T/C (second compound 0.1 µM, first compound 10 µM) was 106%. It also gave a viability, T/C [5] of 112%, a viability, T/C [6] of 121% and a viability, T/C (second compound 0.316 µM, first compound 0.316 µM) of 120%. The viability, T/C (second compound 0.316 µM, first compound 1 µM) was 127%, the viability, T/C (second compound 0.316 µM, first compound 3.16 µM) was 130% and the viability, T/C (second compound 0.316 µM, first compound 10 µM) was 106%. It also gave a viability, T/C [7] of 114%, a viability, T/C [8] of 115% and a viability, T/C (second compound 1 µM, first compound 0.316 µM) of 122%. It also gave a viability, T/C (second compound 1 µM, first compound 1 µM) of 112%, a viability, T/C (second compound 1 µM, first compound 3.16 µM) of 126% and a viability, T/C (second compound 1 µM, first compound 10 µM) of 102%. The viability, T/C [9] was 100%, the viability, T/C [10] was 108% and the viability, T/C (second compound 3.16 µM, first compound 0.316 µM) was 115%. For the same compound, the viability, T/C (second compound 3.16 µM, first compound 1 µM) was 115%, the viability, T/C (second compound 3.16 µM, first compound 3.16 µM) was 114% and the viability, T/C (second compound 3.16 µM, first compound 10 µM) was 92.7%. The viability, T/C [11] was 95.8%, the viability, T/C [12] was 108% and the viability, T/C (second compound 10 µM, first compound 0.316 µM) was 114%. For the same compound, the viability, T/C (second compound 10 µM, first compound 1 µM) was 100%, the viability, T/C (second compound 10 µM, first compound 3.16 µM) was 111% and the viability, T/C (second compound 10 µM, first compound 10 µM) was 86.2%.

From PubChem BioAssay AID2060891 (Molecular Pharmacology Branch, DTP, NCI, 2025)
